This is an account of results in ChEMBL document CHEMBL1201862, “PubChem BioAssay data set” (2004).

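Exposure lasted 48 hours, with cells grown in 96-well plates and compounds tested at five concentrations. Here, GI50 denotes the concentration required for 50% inhibition of growth.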 Active and inactive are the calls of the source. Rule as the data show it: active = GI50 up to about 1.1 µM and inactive = higher.

Holding throughout (assay): NCI-60 cell line screen, 48 h
The test system of experiment [1] is A549.
Experiment [2] has as its system CCRF-CEM.
Experiment [3] deals with EKVX.
Experiment [4] relates to HCC 2998.
Experiment [5] has as its system HCT-116.
The test system of experiment [6] is HOP-92.
Experiment [7] concerns HT-29.
Experiment [8] deals with K562.
Experiment [9] has as its system KM12.
Experiment [10] deals with Malme-3M.
In experiment [11] the test system is OVCAR-3.
Experiment [12] concerns OVCAR-4.
In experiment [13] the test system is OVCAR-5.
Experiment [14] relates to SK-MEL-28.
Experiment [15] has as its system SNB-19.
Experiment [16] concerns UO-31.
The test system of experiment [17] is HOP-18.
Experiment [18] concerns NCI-H522.
For experiment [19], the system named is RXF 393.
In experiment [20] the test system is SNB-75.

For the compound `O=c1[nH]nc(NCc2ccccc2)c2nnn(Cc3ccccc3)c12`, the GI50 in experiment [1], in experiment [2], in experiment [3], in experiment [4], in experiment [5] and in experiment [6] was > 100 µM (inactive) throughout. Moreover, the GI50 in experiment [7], in experiment [8], in experiment [9], in experiment [10], in [11] and in experiment [12] was > 100 µM (inactive) in each case. The GI50 in [13], in experiment [14], in [15] and in experiment [16] was > 100 µM (inactive) in each case.

As to `O=C1NC(=O)C2(CCc3ccc(N(CCCl)CCCl)cc32)N1` (stereo unspecified), the GI50 in experiment [1] is 8.36 µM (inactive); in [2], 1.41 µM (inactive); in experiment [3] it was 3.15 µM (inactive); in experiment [4], 15.9 µM (inactive); in experiment [5] it was 14.1 µM (inactive); in experiment [17] it was 20.2 µM (inactive). Moreover, the GI50 in experiment [6] is 13.5 µM (inactive); in experiment [7] it was 16.4 µM (inactive); in experiment [8], 19.8 µM (inactive); in experiment [9], 29.3 µM (inactive); in [18], 5.26 µM (inactive); in [11], 18.4 µM (inactive). Further, the GI50 in experiment [12] is 19.8 µM (inactive); in experiment [13], 13.2 µM (inactive); in [19], 6.7 µM (inactive); in experiment [14] it was 17.5 µM (inactive); in experiment [15] it was 3.37 µM (inactive); in [20] it was 7.48 µM (inactive). Also, the GI50 in [16] was 11 µM (inactive).

In the case of `CC(SC1=CC(=O)c2c(Cl)ccc(O)c2C1=O)C(=O)O` (stereo unspecified), the GI50 in experiment [1] was 22.4 µM (inactive); in experiment [2], 5.25 µM (inactive); in [3], 21.3 µM (inactive); in [4], 21.3 µM (inactive); in experiment [5], 17.8 µM (inactive); in experiment [17], 27.5 µM (inactive). Moreover, the GI50 is 21.6 µM (inactive) in experiment [6]; > 10 µM (inactive) in experiment [7]; 18.7 µM (inactive) in experiment [8]; 18 µM (inactive) in experiment [9]; 19.7 µM (inactive) in experiment [10]; > 10 µM (inactive) in experiment [19]. Further, the GI50 is 18.5 µM (inactive) in experiment [14] and 16.9 µM (inactive) in experiment [20].

Consider `NC(CCOCCP(=O)(O)O)C(=O)O` (stereo unspecified), for which the GI50 in experiment [1], in experiment [2], in [3], in [4], in [5] and in experiment [6] was > 100 µM (inactive) throughout. Besides, the GI50 in [7], in experiment [8], in [9], in experiment [18], in experiment [11] and in experiment [12] was > 100 µM (inactive) throughout. Further, the GI50 in experiment [13], in experiment [19], in experiment [14], in experiment [15], in experiment [20] and in experiment [16] was > 100 µM (inactive) each time.

On to `Cc1n[nH]c(N)c1C(N)=O`, for which the GI50 in experiment [1] was > 100 µM (inactive); in experiment [2], > 100 µM (inactive); in [3], > 100 µM (inactive); in [4], > 100 µM (inactive); in [17], < 0.01 µM (active); in experiment [7], > 100 µM (inactive). Besides, the GI50 in experiment [8], in experiment [9], in experiment [10], in [18], in experiment [12] and in [13] was > 100 µM (inactive) each time. Moreover, the GI50 in experiment [19] is 21.5 µM (inactive); in experiment [14] it was > 100 µM (inactive); in [15], > 100 µM (inactive); in experiment [20], > 100 µM (inactive); in experiment [16] it was > 100 µM (inactive).

As for `CC1C(O)[C@@]2(OC[C@@]34C(=O)CC5(O)[C@H](CCC6Cc7nc8c(nc7C[C@]65C)CC5CC[C@@H]6C7=C[C@H]9O[C@@]%10(O[C@@](C)(CO)C[C@@H]%10O)C(C)[C@@]9(O)[C@]7(C)[C@@H](O)CC6[C@]5(C)C8)C3=CC[C@H]4C2C)OC1(C)C` (stereo partly specified), the GI50 in experiment [1] is < 0.000355 µM (active); in [2], < 0.000355 µM (active); in experiment [3], 0.00084 µM (active); in experiment [4], 0.548 µM (active); in experiment [5], 0.000776 µM (active); in experiment [17], 0.849 µM (active). Moreover, the GI50 in experiment [6] was < 0.000355 µM (active); in [7], 0.000622 µM (active); in [8] it was < 0.000355 µM (active); in experiment [9], > 3.55 µM (inactive); in [10], 0.00287 µM (active); in experiment [18], 0.00308 µM (active). Also, the GI50 was 1.26 µM (inactive) in experiment [11]; 0.604 µM (active) in [12]; 0.00211 µM (active) in experiment [13]; < 0.000355 µM (active) in experiment [19]; 0.00259 µM (active) in experiment [15]; < 0.000355 µM (active) in experiment [20]. Moreover, the GI50 in experiment [16] was 0.0254 µM (active).

As to `Nc1nc(=O)[nH][nH]1`, the GI50 in experiment [1], in experiment [2], in experiment [3], in [4], in [5] and in experiment [6] was > 100 µM (inactive) throughout. Besides, the GI50 in experiment [7], in experiment [8], in [9], in [10], in experiment [18] and in experiment [11] was > 100 µM (inactive) throughout. Further, the GI50 in experiment [12], in experiment [13], in experiment [19], in experiment [14], in [15] and in experiment [20] was > 100 µM (inactive) throughout. The GI50 in [16] is > 100 µM (inactive).

Consider `C[Si](C)(OCCS(=O)(=O)O)C1(Cc2cccc3ccccc23)S(=O)(=O)OCCOS1(=O)=O`, for which the GI50 in experiment [1] was 23 µM (inactive); in [2], 18.3 µM (inactive); in experiment [3], 17.7 µM (inactive); in experiment [4], 16.5 µM (inactive); in experiment [5], 18.5 µM (inactive); in experiment [6], 11.2 µM (inactive). Besides, the GI50 in experiment [8] was 26.4 µM (inactive); in experiment [9], 14.4 µM (inactive); in experiment [18], 13.7 µM (inactive); in experiment [11], 12.6 µM (inactive); in experiment [12] it was 20.7 µM (inactive); in [13] it was 18.7 µM (inactive). The GI50 in experiment [14] is 17.1 µM (inactive); in [15], 19.1 µM (inactive); in experiment [20], 15.5 µM (inactive); in experiment [16] it was 17.9 µM (inactive).

Regarding `OC[C@H]1NC[C@@H](O)[C@@H](O)[C@H]1O`, the GI50 in [2], in experiment [4], in [5], in [6], in experiment [7] and in experiment [8] was > 100 µM (inactive) throughout. Moreover, the GI50 in [9], in [10], in experiment [11], in experiment [12], in experiment [13] and in experiment [19] was > 100 µM (inactive) in each case. In addition, the GI50 in experiment [14] was > 10 µM (inactive); in experiment [15], > 100 µM (inactive); in [20], 9.29 µM (inactive); in experiment [16], > 100 µM (inactive).

In the case of `N=S(=O)(c1ccccc1)c1ccccc1`, the GI50 was > 100 µM (inactive) in [1]; 24.2 µM (inactive) in experiment [2]; > 100 µM (inactive) in experiment [3]; > 100 µM (inactive) in experiment [4]; > 100 µM (inactive) in experiment [5]; > 100 µM (inactive) in experiment [17]. In addition, the GI50 is > 10 µM (inactive) in experiment [7]; 28.2 µM (inactive) in [8]; > 100 µM (inactive) in experiment [9]; > 100 µM (inactive) in experiment [10]; > 100 µM (inactive) in [18]; > 100 µM (inactive) in experiment [11]. Further, the GI50 in experiment [12], in experiment [13], in experiment [14], in experiment [15], in experiment [20] and in [16] was > 100 µM (inactive) in each case.

Take `COc1ccc(C2C(C(=O)O)=C(CO)Oc3cc4c(cc32)OCO4)cc1` (stereo unspecified): the GI50 in experiment [1], in experiment [3], in experiment [5], in [17], in experiment [6] and in experiment [7] was > 100 µM (inactive) each time. The GI50 in [10], in experiment [11], in [12], in experiment [19], in experiment [14] and in experiment [15] was > 100 µM (inactive) each time. In addition, the GI50 is 27.4 µM (inactive) in experiment [20] and > 100 µM (inactive) in experiment [16].
